{
  "source": "ChEMBL document CHEMBL4256942",
  "about": "“Exo Olefin-Containing Nuclear Transport Modulators and Uses Thereof” (2016)",
  "molecular_target": "Exportin-1 (Homo sapiens, UniProt O14980)",
  "sequence (O14980 whole entry, the tested form may be a part)": "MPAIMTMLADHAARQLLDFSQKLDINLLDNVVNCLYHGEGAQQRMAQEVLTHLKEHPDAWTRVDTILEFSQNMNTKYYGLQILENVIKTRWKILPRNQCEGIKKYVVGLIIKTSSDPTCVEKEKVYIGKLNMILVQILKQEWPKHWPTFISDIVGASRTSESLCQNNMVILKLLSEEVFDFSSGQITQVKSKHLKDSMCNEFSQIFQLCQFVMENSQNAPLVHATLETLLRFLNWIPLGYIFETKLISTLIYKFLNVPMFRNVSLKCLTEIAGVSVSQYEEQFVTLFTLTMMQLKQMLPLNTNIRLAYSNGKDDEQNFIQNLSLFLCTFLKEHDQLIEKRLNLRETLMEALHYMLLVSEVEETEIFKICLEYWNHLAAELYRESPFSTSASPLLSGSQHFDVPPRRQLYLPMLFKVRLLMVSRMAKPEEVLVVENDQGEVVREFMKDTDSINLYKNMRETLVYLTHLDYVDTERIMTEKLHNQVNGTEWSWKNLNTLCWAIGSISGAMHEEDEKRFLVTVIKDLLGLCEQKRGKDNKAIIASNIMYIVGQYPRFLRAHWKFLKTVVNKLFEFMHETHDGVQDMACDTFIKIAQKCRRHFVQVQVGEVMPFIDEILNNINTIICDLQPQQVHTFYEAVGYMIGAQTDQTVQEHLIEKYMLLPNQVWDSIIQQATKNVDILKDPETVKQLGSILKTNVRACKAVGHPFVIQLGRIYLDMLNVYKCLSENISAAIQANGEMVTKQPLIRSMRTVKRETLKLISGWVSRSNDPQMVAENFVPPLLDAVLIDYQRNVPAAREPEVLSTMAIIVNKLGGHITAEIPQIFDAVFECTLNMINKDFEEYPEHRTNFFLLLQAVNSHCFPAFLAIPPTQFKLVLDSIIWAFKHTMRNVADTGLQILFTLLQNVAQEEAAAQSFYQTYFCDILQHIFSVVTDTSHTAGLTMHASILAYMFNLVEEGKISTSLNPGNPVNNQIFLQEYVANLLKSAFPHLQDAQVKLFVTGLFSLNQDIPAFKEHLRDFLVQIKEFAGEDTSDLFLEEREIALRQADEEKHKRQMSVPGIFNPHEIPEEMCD",
  "assay": "Inhibition of CRM1 in human HeLa cells expressing GFP which is N-terminally fused to nuclear localization and C-terminally fused to nuclear export signal of PKI assesed as reduction in GFP subcellular localization incubated for 3 hrs by nuclear export assay",
  "type": "cell-based",
  "data": [
    {"smiles": "C=C(Cn1nnc(-c2cccc(Cl)c2)n1)C(=O)OCC", "values": [
      {"measurement": "EC50", "result": 30, "unit": "µM"}
    ]},
    {"smiles": "C=C(Cn1nnc(-c2cccc(C(F)(F)F)c2)n1)C(=O)OCC", "values": [
      {"measurement": "EC50", "result": 30, "unit": "µM"}
    ]}
  ]
}
